Data on 2 compounds can be found in BindingDB's records for doi:10.1016/j.bmcl.2006.12.033 (F. Hoffmann-La Roche, 2007).

Test [1] has as its target T1, Metabotropic glutamate receptor 5 (Homo sapiens, UniProt P41594). Put plainly: Antagonist activity at mGluR5 by FLIPR.
The target in test [2] is T1, Metabotropic glutamate receptor 5. Put plainly: Displacement of [3H]MPEP from mGlu5 receptor. (In general: In a radioligand displacement assay an active substance lowers the binding of a labelled ligand.)

T1 sequence (P41594 whole entry): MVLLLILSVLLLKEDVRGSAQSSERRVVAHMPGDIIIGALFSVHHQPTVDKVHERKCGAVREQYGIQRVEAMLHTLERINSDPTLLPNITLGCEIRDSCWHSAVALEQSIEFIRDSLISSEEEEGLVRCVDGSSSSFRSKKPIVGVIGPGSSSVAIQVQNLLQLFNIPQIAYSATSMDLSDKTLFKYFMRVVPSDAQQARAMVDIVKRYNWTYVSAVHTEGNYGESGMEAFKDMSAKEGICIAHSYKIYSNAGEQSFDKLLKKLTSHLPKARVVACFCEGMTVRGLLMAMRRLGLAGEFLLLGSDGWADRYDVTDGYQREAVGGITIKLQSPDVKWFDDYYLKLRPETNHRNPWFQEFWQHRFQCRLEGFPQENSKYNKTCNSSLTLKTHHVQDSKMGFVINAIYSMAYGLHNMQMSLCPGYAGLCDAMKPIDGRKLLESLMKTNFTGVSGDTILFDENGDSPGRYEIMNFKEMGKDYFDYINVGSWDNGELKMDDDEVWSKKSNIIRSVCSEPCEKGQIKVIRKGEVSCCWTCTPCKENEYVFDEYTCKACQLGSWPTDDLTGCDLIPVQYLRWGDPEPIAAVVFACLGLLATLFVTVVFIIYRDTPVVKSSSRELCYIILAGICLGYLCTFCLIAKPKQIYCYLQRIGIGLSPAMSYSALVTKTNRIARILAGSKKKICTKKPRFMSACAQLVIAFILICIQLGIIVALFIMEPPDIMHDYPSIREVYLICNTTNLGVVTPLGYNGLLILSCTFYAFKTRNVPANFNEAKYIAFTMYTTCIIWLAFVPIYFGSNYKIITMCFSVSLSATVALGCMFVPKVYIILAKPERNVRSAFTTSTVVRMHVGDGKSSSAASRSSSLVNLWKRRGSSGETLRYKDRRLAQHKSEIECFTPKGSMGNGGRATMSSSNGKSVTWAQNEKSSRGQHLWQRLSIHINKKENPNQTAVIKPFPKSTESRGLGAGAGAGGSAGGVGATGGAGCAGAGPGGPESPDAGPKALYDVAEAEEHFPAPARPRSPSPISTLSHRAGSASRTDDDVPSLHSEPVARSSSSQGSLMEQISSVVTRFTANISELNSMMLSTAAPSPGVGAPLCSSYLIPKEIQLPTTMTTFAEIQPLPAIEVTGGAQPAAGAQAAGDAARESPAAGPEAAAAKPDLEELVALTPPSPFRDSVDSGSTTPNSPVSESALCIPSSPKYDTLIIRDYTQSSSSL

As a reminder, the IC50 is the point on the concentration scale where inhibition reaches its midpoint. High values mean lower potency, low ones higher potency. For the compound `Cn1cc(O)nc1NC(=O)Nc1cccnc1` [(E)-1-(1-methyl-4-oxoimidazolidin-2-ylidene)-3-(pyridin-3-yl)urea], the IC50 in test [1] and in test [2] was > 5 µM throughout.

With `Cn1cc(O)nc1NC(=O)Nc1ccc(Cl)cc1` [(E)-1-(4-chlorophenyl)-3-(1-methyl-4-oxoimidazolidin-2-ylidene)urea], the IC50 in test [1] and in test [2] was > 5 µM in each case.
